In patent US20250290065A1, “METHODS FOR MODULATING HUMAN L1 RETROTRANSPOSONS RNA AND COMPOSITIONS FOR USE THEREIN” (King Abdullah University of Science and Technology, priority 2019, published 2025):
“Also recorded” adds a separate entry of the source.

Assays:
[1] = test system: Line 1 retrotransposition; conditions: Nishikawa et al. 2018; Banuelos-Sanchez et al. 2019; cited from earlier work
[2] = test system: OP patients derived MSC differentiating to osteoblasts; test: L1 RNA transfection of MSC from osteoporotic patients, bone matrix quantification; format: cell-based, human
Procedure: (§1) Cells were washed in PBS and fixed with 4% Paraformaldehyde for 15 minutes. Mineralization was assessed by using the OsteoImage Mineralization Assay (#LOPA503, Lonza) according to manufacturer's indication. Mineralization was quantitatively assayed with GloMax discover plate reader (Promega) with appropriate excitation (492)/emission (520) wavelengths.

[3] = test system: BAX, IFNa2, IFNb1, IFI44 expression in MSC
Procedure: L1 RNA was transfected in differentiating osteoblasts at day 7 using Lipofectamine™ MessengerMAX™ (Invitrogen, USA, Cat. No. LMRNA003) with a modified protocol were a lower RNA amount (10 times less) than recommended was transfected. RFP mRNA (System Bioscience, USA, Cat. No. MR800A-1) was used as negative control.
Real time quantitative polymerase chain reaction (qPCR) was performed with 7900HT Fast Real Time PCR system (Applied Biosystems). Each sample was analyzed in triplicate and normalized with the endogenous control, Ribosomal Protein L13A (RPL13A) for osteogenesis and Tata Binding Protein (TBP) for adipogenesis, for cDNA input concentration. No template and no RT were included as negative controls. For each 15 μl reaction, 10 ng (1 ng for L1) of cDNA was mixed with 1 μM specific primers mix and 7.5 μl of Sybr Select Master mix (#4472908, Life Technologies). The reaction was incubated at 95° C. for 10 minutes, followed by 40 cycles of denaturation at 95° C. for 15 seconds, annealing at 60° C. for 30 seconds and elongation at 72° C. for 30 seconds. Ct values were calculated by 7900HT Fast Real Time PCR RQ manager software (Applied Biosystems) and then normalized as DCt between the gene of interest and the endogenous calibrator. […] In all primer pairs each primer matches a different exon. Amplicons length was 80-130 nucleotides.

L1 promoter = conditions: Terasaki, et al., PLoS One 2013; cited from earlier work
[4] = test system: differentiating osteoblasts; test: Mineralization assay (OsteoImage) in differentiating osteoblasts; format: cell-based, human; conditions: 150 μM, after 21 days of differentiation, vs DMSO
Procedure: Bone marrow-derived MSC (#C-12974, PromoCell GmbH, Heidelberg, Germany) were grown in 0.1% gelatin solution (#07903, StemCell)-coated plates until passage 4. Growth medium (#PT-3001, Lonza) was changed every 3 days. Osteogenic differentiation was induced by replacing growth medium with Osteogenic Differentiation Medium (#PT-3002, Lonza) on 70% confluent cells seeded on 1:50 Matrigel (#356237, Corning)-coated plates. Adipogenic differentiation was induced by three cycles of induction/maintenance Adipogenic Differentiation Medium (#PT-3004, Lonza) on post-confluent cells seeded on 1:50 MatMatrigel (#356237, Corning)-coated plates.
as §1

[5] = test system: human mesenchymal stem cells; test: Cell cycle analysis (Propidium Iodide, FACS); format: cell-based; conditions: 3TC vs DMSO; data not shown
Procedure: 2×105 MSCs were trypsinized for 5 min at 37° C., washed with PBS and 2% BSA, passed through a […] strainer (#352350, Corning) and then fixed at −20° C. for 30 min in 70% ethanol. After washing with PBS and 4% BSA, cells were resuspended in PBS and incubated 1 hour at 37° C. with RNAse. Cells were then washed and resuspended in 100 μl of Flow Cytometry Staining Buffer (R&D System, #FC001). 10 μl of 1 mg/ml Propidium iodide (PI) staining solution (#P3566) was added to the single cell solution, gently mixed, and incubated 5 min in the dark. Cell cycle analysis was performed on BD FACSCanto II Flow Cytometry System, using BD FACSDiva Software.

| Compound | L1 promoter activity (L1 promoter) | other results |
| --- | --- | --- |
| Nc1nc(=O)n([C@@H]2CS[C@H](CO)O2)cc1F [emtricitabine] | – | Line 1 retrotransposition [1]: inhibit Line 1 retrotansposition |
| COc1cc(CNC(=O)CCCC/C=C/C(C)C)ccc1O [Capsaicin] | – | Line 1 retrotransposition [1]: inhibit Line 1 retrotansposition |
| L1 RNA: Cy5-conjugated synthetic full-length human L1 mRNA, in vitro transcribed, capped, 5-methyl-C, Pseudo-U substituted, polyadenylated (TriLink) | – | osteoblasts maturation ([2]; in vitro differentiating MSC, all patients tested): greatly enhanced osteoblasts maturation; bone matrix production / mineralized matrix ([2]; transfection at day 7 of osteogenesis, three days after transfection, 4 OP patients, vs random RNA): restored bone matrix production; also recorded: fully rescued the production of mineralized matrix; induction of apoptosis and Interferon response genes [3]: neither apoptosis nor Interferon response genes were induced |
| CC1=C(CC(=O)O)c2cc(F)ccc2/C1=C\c1ccc([S+](C)[O-])cc1 (centres unmarked) [sulindac] | induce L1 promoter activity | – |
| O=C(O)c1cc(-c2ccc(F)cc2F)ccc1O [diflunisal] | induce L1 promoter activity | – |
| Nc1ccn([C@@H]2CS[C@H](CO)O2)c(=O)n1 [Lamivudine 3TC, Lamivudine] | – | mineral deposition (mineralization) [4]: −69%; mineral deposition (mineralization) ([4]; listed as 3TC): −60%; cell cycle analysis and apoptotic cell number in sub-G1 peak [5]: no significant differences |
| C=C1[C@@H](C)[C@H]2[C@H](Cc3ccccc3)NC(=O)[C@]23[C@H](OC(C)=O)/C=C/[C@@](C)(O)C(=O)[C@@H](C)C/C=C/[C@H]3[C@@H]1O [cytochalasin D] | induce L1 promoter activity | – |
| CC[C@@]1(O)C(=O)OCc2c1cc1n(c2=O)Cc2cc3ccccc3nc2-1 [camptothecin] | induce L1 promoter activity | – |
| O=C1NC(=S)NC(=O)C1C(=O)Nc1ccccc1 [merbarone] | induce L1 promoter activity | – |
| NC(=O)c1ccccc1O [salicylamide] | induce L1 promoter activity | – |
| O=C(O)c1ccccc1Nc1cccc(C(F)(F)F)c1 [flufenamic acid] | induce L1 promoter activity | – |
| c1ccc2c(c1)cc1ccc3cccc4ccc2c1c34 [benzo[a]pyrene] | induce L1 promoter activity | – |
| CC[C@]1(O)C[C@@H]2CN(CCc3c([nH]c4ccccc34)[C@@](C(=O)OC)(c3cc4c(cc3OC)N(C)[C@H]3[C@@](O)(C(=O)OC)[C@H](OC(C)=O)[C@]5(CC)C=CCN6CC[C@]43[C@@H]65)C2)C1 [vinblastine] | induce L1 promoter activity | – |
